In patent US20260085062A1, “NOVEL COMPOUNDS AS CK2 INHIBITORS” (Cambridge Enterprise Limited, priority 2022, published 2026):
pIC50: −log10 of the molar value.

Assays:
CLK2 = biological target: T1, CLK2 (Homo sapiens, UniProt P49760); assay: Biochemical assay for inhibitors of CLK2 kinase activity (ADP-Glo); settings: 20 nM CLK2, 50 μM peptide substrate, 100 μM ATP, read-out: Assay 2: CLK2 Enzyme IC50
T1 construct: purchased Carna Biosciences 04-127

CK2α = biological target: T2, CK2α (Homo sapiens, UniProt P68400); assay: Biochemical assay for inhibitors of CK2α kinase activity (ADP-Glo); settings: 0.2 nM CK2α, 50 μM peptide substrate, 15 μM ATP, read-out: Assay 1: CK2α Enzyme IC50
T2 construct: CK2α (residues 2-329) was produced in Escherichia coli BL21 (DE3) for kinase activity screening; His6 (N, cleaved yes); made in house; host or cells: Escherichia coli BL21 (DE3)
T2 sequence (P68400 2-329): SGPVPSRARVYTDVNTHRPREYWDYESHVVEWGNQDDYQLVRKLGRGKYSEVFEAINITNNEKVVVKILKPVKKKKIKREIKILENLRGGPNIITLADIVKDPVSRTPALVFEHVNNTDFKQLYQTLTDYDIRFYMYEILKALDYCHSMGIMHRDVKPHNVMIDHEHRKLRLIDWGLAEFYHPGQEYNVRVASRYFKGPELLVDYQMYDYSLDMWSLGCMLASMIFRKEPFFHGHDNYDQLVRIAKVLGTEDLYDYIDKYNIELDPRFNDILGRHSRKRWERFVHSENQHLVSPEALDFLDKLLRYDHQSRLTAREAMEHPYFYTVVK

intracellular CK2α = biological target: T3, intracellular CK2α (Homo sapiens, UniProt P19784); assay: Cell-based NanoBRET assay for inhibitor binding to intracellular CK2α; settings: HCT116 cells transiently transfected with CSNK2A2-NanoLuc fusion vector; Tracer K-5; 2 h; read-out: Assay 3: NanoBRET ™ assay for binding to intracellular CK2α
T3 construct: host or cells: HCT116 (ATCC CCL-247)
T3 sequence (P19784 whole entry, the tested form may be a part): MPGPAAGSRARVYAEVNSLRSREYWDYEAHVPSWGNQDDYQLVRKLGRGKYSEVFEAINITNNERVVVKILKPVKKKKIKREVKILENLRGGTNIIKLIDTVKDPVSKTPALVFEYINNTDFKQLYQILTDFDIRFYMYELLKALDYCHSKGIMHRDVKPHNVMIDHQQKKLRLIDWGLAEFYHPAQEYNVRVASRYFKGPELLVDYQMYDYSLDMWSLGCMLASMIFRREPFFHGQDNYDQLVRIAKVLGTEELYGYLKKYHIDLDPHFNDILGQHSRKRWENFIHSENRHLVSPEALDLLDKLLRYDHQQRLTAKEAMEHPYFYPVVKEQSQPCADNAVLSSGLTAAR
In short: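 Living cells expressing NanoLuc-CK2α fusion were given a fixed tracer concentration, and compounds competitively displaced the reversibly bound tracer. Donor (450 nm) and acceptor (610 or 630 nm) emissions were read; BRET ratio = (acceptor/donor)×1,000, giving apparent intracellular affinity.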

T1 sequence (P49760 whole entry): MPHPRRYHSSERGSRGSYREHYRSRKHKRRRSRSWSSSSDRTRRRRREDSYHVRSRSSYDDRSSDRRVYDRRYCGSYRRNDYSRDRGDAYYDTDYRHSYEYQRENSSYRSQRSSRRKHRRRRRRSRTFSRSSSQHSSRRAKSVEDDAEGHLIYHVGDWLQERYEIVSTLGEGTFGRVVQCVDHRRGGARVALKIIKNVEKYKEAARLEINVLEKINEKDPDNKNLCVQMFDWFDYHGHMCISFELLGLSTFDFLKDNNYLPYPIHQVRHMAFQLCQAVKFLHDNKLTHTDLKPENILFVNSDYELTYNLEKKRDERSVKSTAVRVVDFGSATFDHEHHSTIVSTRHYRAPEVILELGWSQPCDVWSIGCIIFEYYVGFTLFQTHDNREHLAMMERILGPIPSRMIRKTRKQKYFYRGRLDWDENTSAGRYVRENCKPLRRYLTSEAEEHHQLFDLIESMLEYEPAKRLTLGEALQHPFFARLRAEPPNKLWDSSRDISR

c1cc2[nH]c(CNCCCCOC3CN(c4cc(-c5cnoc5)cc5[nH]ncc45)C3)cc2cc1OC1CCC1 [Example 119, N-((5-cyclobutoxy-1H-indol-2-yl)methyl)-4-((1-(6-(isoxazol-4-yl)-1H-indazol-4-yl)azetidin-3-yl)oxy)butan-1-amine]
pIC50 (CLK2): 6.21 | pIC50 (CK2α): 7.64 | pIC50 (intracellular CK2α): 5.79

OCc1cc(CNCCCCOC2CN(c3cc(-c4cnoc4)cc4[nH]ncc34)C2)cc(C(F)(F)F)c1 [Example 120, (3-(((4-((1-(6-(isoxazol-4-yl)-1H-indazol-4-yl)azetidin-3-yl)oxy)butyl)amino)methyl)-5-(trifluoromethyl)phenyl)methanol]
pIC50 (CLK2): 6.85 | pIC50 (CK2α): 7.07 | pIC50 (intracellular CK2α): 5.49

Cc1cc(CC#N)cc(CNCCCCOC2CN(c3cc(-c4cnoc4)cc4[nH]ncc34)C2)c1 [Example 121, 2-(3-(((4-((1-(6-(isoxazol-4-yl)-1H-indazol-4-yl)azetidin-3-yl)oxy)butyl)amino)methyl)-5-methylphenyl)acetonitrile]
pIC50 (CLK2): 6.68 | pIC50 (CK2α): 7.35 | pIC50 (intracellular CK2α): 5.44

N#CCc1cc(Cl)cc(CNCCCCOC2CN(c3cc(-c4cnoc4)cc4[nH]ncc34)C2)c1 [Example 122, 2-(3-chloro-5-(((4-((1-(6-(isoxazol-4-yl)-1H-indazol-4-yl)azetidin-3-yl)oxy)butyl)amino)methyl)phenyl)acetonitrile]
pIC50 (CLK2): 6.97 | pIC50 (CK2α): 7.53 | pIC50 (intracellular CK2α): 6.08

FC(F)(F)Oc1ccc(CNCCCCOCCOc2cc(-n3cnnc3)cc3[nH]nnc23)cc1Cl [Example 123, 4-(2-((6-(4H-1,2,4-triazol-4-yl)-1H-benzo[d][1,2,3]triazol-4-yl)oxy)ethoxy)-N-(3-chloro-4-(trifluoromethoxy)benzyl)butan-1-amine]
pIC50 (CLK2): 4.35 | pIC50 (CK2α): 6.51 | pIC50 (intracellular CK2α): < 4.30

c1cc2[nH]c(CNCCCCOC3CN(c4cc(-n5cnnc5)cc5[nH]ncc45)C3)cc2cc1OC1CCC1 [Example 124, 4-((1-(6-(4H-1,2,4-triazol-4-yl)-1H-indazol-4-yl)azetidin-3-yl)oxy)-N-((5-cyclobutoxy-1H-indol-2-yl)methyl)butan-1-amine]
pIC50 (CLK2): 6.87 | pIC50 (CK2α): 8.13 | pIC50 (intracellular CK2α): 5.70

OCc1cc(F)cc(CNCCCCOC2CN(c3cc(-n4cnnc4)cc4[nH]ncc34)C2)c1 [Example 125, (3-(((4-((1-(6-(4H-1,2,4-triazol-4-yl)-1H-indazol-4-yl)azetidin-3-yl)oxy)butyl)amino)methyl)-5-fluorophenyl)methanol]
pIC50 (CLK2): 6.82 | pIC50 (CK2α): 6.79 | pIC50 (intracellular CK2α): 4.31

FC(F)(F)Oc1ccc(CNCCCCOCCNc2cc(-n3cnnc3)cc3[nH]nnc23)cc1Cl [Example 126, N-(2-(4-((3-chloro-4-(trifluoromethoxy)benzyl)amino)butoxy)ethyl)-6-(4H-1,2,4-triazol-4-yl)-1H-benzo[d][1,2,3]triazol-4-amine]
pIC50 (CLK2): 4.74 | pIC50 (CK2α): 7.96 | pIC50 (intracellular CK2α): 5.44

FC(F)(F)c1ccc2[nH]c(CNCCCCOC3CN(c4cc(-n5cnnc5)cc5[nH]ncc45)C3)cc2c1 [Example 128, 4-((1-(6-(4H-1,2,4-triazol-4-yl)-1H-indazol-4-yl)azetidin-3-yl)oxy)-N-((5-(trifluoromethyl)-1H-indol-2-yl)methyl)butan-1-amine]
pIC50 (CLK2): 6.73 | pIC50 (CK2α): 8.40 | pIC50 (intracellular CK2α): < 4.30

Fc1cc(CNCCCCOC2CN(c3cc(-n4cnnc4)cc4[nH]ncc34)C2)ccc1OC(F)(F)F [Example 129, 4-((6-(6-(4H-1,2,4-triazol-4-yl)-1H-indazol-4-yl)azetidine-3-yl)oxy)-N-(3-fluoro-4-(trifluoromethoxy)benzyl)butan-1-amine]
pIC50 (CLK2): 6.31 | pIC50 (CK2α): 7.63 | pIC50 (intracellular CK2α): < 4.30

OCc1cc(Cl)cc(CNCCCCOC2CN(c3cc(-n4cnnc4)cc4[nH]ncc34)C2)c1 [Example 130, (3-(((4-((1-(6-(4H-1,2,4-triazol-4-yl)-1H-indazol-4-yl)azetidin-3-yl)oxy)butyl)amino)methyl)-5-chlorophenyl)methanol]
pIC50 (CLK2): 6.49 | pIC50 (CK2α): 6.98 | pIC50 (intracellular CK2α): 4.81

N#CCc1cc(Cl)cc(CNCCCCOC2CN(c3cc(-n4cnnc4)cc4[nH]ncc34)C2)c1 [Example 131, 2-(3-(((4-((1-(6-(4H-1,2,4-triazol-4-yl)-1H-indazol-4-yl)azetidin-3-yl)oxy)butyl)amino)methyl)-5-chlorophenyl)acetonitrile]
pIC50 (CLK2): 6.84 | pIC50 (CK2α): 7.55 | pIC50 (intracellular CK2α): 5.52

FC(F)(F)Oc1ccc(CNCCCCOC2CN(c3cc(-n4cnnc4)cc4[nH]ncc34)C2)cc1Cl [Example 132, 4-((1-(6-(4H-1,2,4-triazol-4-yl)-1H-indazol-4-yl)azetidin-3-yl)oxy)-N-(3-chloro-4-(trifluoromethoxy)benzyl)butan-1-amine]
pIC50 (CLK2): 6.35 | pIC50 (CK2α): 7.96 | pIC50 (intracellular CK2α): 6.06

N#CCc1cc(Cl)cc(CNCCCCOC2CN(c3cc(-c4ccnnc4)cc4[nH]ncc34)C2)c1 [Example 133, 2-(3-chloro-5-(((4-((1-(6-(pyridazin-4-yl)-1H-indazol-4-yl)azetidin-3-yl)oxy)butyl)amino)methyl)phenyl)acetonitrile]
pIC50 (CLK2): 5.69 | pIC50 (CK2α): 7.50 | pIC50 (intracellular CK2α): 5.51

N#CCc1cc(CNCCCCOC2CN(c3cc(-c4ccnnc4)cc4[nH]ncc34)C2)cc(OC(F)(F)F)c1 [Example 134, 2-(3-(((4-((1-(6-(pyridazin-4-yl)-1H-indazol-4-yl)azetidin-3-yl)oxy)butyl)amino)methyl)-5-(trifluoromethoxy)phenyl)acetonitrile]
pIC50 (CLK2): 5.57 | pIC50 (CK2α): 8.28 | pIC50 (intracellular CK2α): 6.09

Fc1cc(CNCCCCOC2CN(c3cc(-c4cnoc4)cc4[nH]ncc34)C2)ccc1OC(F)(F)F [Example 135, N-(3-fluoro-4-(trifluoromethoxy)benzyl)-4-((1-(6-(isoxazol-4-yl)-1H-indazol-4-yl)azetidin-3-yl)oxy)butan-1-amine]
pIC50 (CLK2): 6.64 | pIC50 (CK2α): 7.88 | pIC50 (intracellular CK2α): 5.74

OCc1cc(Cl)cc(CNCCCCOC2CN(c3cc(-c4cnoc4)cc4[nH]ncc34)C2)c1 [Example 136, (3-chloro-5-(((4-((1-(6-(isoxazol-4-yl)-1H-indazol-4-yl)azetidin-3-yl)oxy)butyl)amino)methyl)phenyl)methanol]
pIC50 (CLK2): 6.91 | pIC50 (CK2α): 7.48 | pIC50 (intracellular CK2α): 5.47

FC(F)(F)Oc1ccc(CNCCCCOC2CN(c3cc(-c4cnoc4)cc4[nH]ncc34)C2)cc1Cl [Example 137, N-(3-chloro-4-(trifluoromethoxy)benzyl)-4-((1-(6-(isoxazol-4-yl)-1H-indazol-4-yl)azetidin-3-yl)oxy)butan-1-amine]
pIC50 (CLK2): 6.48 | pIC50 (CK2α): 7.88 | pIC50 (intracellular CK2α): 5.54

OCc1cc(F)cc(CNCCCCOC2CN(c3cc(-c4cnoc4)cc4[nH]ncc34)C2)c1 [Example 138, (3-fluoro-5-(((4-((1-(6-(isoxazol-4-yl)-1H-indazol-4-yl)azetidin-3-yl)oxy)butyl)amino)methyl)phenyl)methanol]
pIC50 (CLK2): 6.94 | pIC50 (CK2α): 7.47 | pIC50 (intracellular CK2α): 5.23

FC(F)(F)c1ccc2[nH]c(CNCCCCOC3CN(c4cc(-c5cnoc5)cc5[nH]ncc45)C3)cc2c1 [Example 139, 4-((1-(6-(isoxazol-4-yl)-1H-indazol-4-yl)azetidin-3-yl)oxy)-N-((5-(trifluoromethyl)-1H-indol-2-yl)methyl)butan-1-amine]
pIC50 (CLK2): 6.30 | pIC50 (CK2α): 7.96 | pIC50 (intracellular CK2α): 5.63

FC(F)(F)c1ccc2[nH]c(CNCCCCOC3CN(c4cc(-c5ccnnc5)cc5[nH]ncc45)C3)cc2c1 [Example 140, 4-((1-(6-(pyridazin-4-yl)-1H-indazol-4-yl)azetidin-3-yl)oxy)-N-((5-(trifluoromethyl)-1H-indol-2-yl)methyl)butan-1-amine]
pIC50 (CLK2): 5.69 | pIC50 (CK2α): 7.99 | pIC50 (intracellular CK2α): 5.55

N#CCc1cc(CNCCCCOCCNc2cc(-n3cnnc3)cc3[nH]nnc23)cc(OC(F)(F)F)c1 [Example 141, 2-(3-(((4-(2-((6-(4H-1,2,4-triazol-4-yl)-1H-benzo[d][1,2,3]triazol-4-yl)amino)ethoxy)butyl)amino)methyl)-5-(trifluoromethoxy)phenyl)acetonitrile]
pIC50 (CLK2): 4.75 | pIC50 (CK2α): 8.56 | pIC50 (intracellular CK2α): 5.69

FC(F)(F)c1ccc2[nH]c(CNCCCCOCCNc3cc(-n4cnnc4)cc4[nH]nnc34)cc2c1 [Example 142, 6-(4H-1,2,4-triazol-4-yl)-N-(2-(4-(((5-(trifluoromethyl)-1H-indol-2-yl)methyl)amino)butoxy)ethyl)-1H-benzo[d][1,2,3]triazol-4-amine]
pIC50 (CLK2): 5.32 | pIC50 (CK2α): 8.27 | pIC50 (intracellular CK2α): 5.41

FC(F)(F)c1ccc2[nH]c(CNCCCCOCCNc3cc(-c4cnoc4)cc4[nH]nnc34)cc2c1 [Example 143, 6-(isoxazol-4-yl)-N-(2-(4-(((5-(trifluoromethyl)-1H-indol-2-yl)methyl)amino)butoxy)ethyl)-1H-benzo[d][1,2,3]triazol-4-amine]
pIC50 (CLK2): 6.20 | pIC50 (CK2α): 8.15 | pIC50 (intracellular CK2α): 6.25
